Results taken from US7491534B2, “Methods for altering cell fate to generate T-cells specific for an antigen of interest” (priority 2000, dated 2009).
Numbered stars: 1 amine (or outer) side, 2 acyl side, 3 side chain; on linkers, the order of the positions; unused ones are H or OH. Bridge positions count the residues as written; N and C are the ends. Square brackets hold non-standard residues; d marks the D form. Peptide text beside a SMILES is read from it. I, II: the chains in the order shown. Actinocin(9to1) = Cc1c2oc3c(C)ccc(C(=O)[*:1])c3nc-2c(C(=O)[*:2])c(N)c1=O; NMeV = CN[C@H](C(=O)O)C(C)C; Sar = CNCC(=O)O

How the values were obtained:
293T fibroblasts = experiment: Permeabilization of 293T fibroblasts judged by propidium iodide uptake; assay type: cell-based, human; conditions: 200 ng/ml, 50 minutes at 37° C.
Protocol: For these studies, 293T fibroblasts were grown on 16-mm poly-L-lysine-coated coverslips in RPMI1640 to 100,000 cells/coverslip in 12-well plates. Cells were permeabilized in 200 ng/ml streptolysin O in Ca^2+-free Hanks Balanced Salt Solution (Gibco-BRL) for 50 minutes at 37° C. in regular atmosphere. Over 80% of 293T cells were permeabilized under these conditions, as judged by propidium iodide uptake. Streptolysin O was aspirated; coverslips overlaid with 80 μl of either 293T, Jurkat-Tag, or NT2 extract; and incubated for one hour at 37° C. in CO2 atmosphere. Each extract contained the ATP generating system and 1 mM each of ATP, CTP, GTP and UTP. Extracts from Jurkat-TAg cells were prepared as described above after co-stimulation for 1-2 hours with 40 ng/ml anti-CD3 antibodies (clone SpvT3d obtained from A. M. Rasmussen, Norwegian Radium Hospital, Montebello, Norway) and 0.1 μM PMA. The neuronal precursor NT2 extract was prepared from confluent NT2 cells (Stratagene) by sonication and sedimentation as described above. To reseal plasma membranes, RPMI1640 containing 2 mM CaCl2 (added from a 1 M stock in H2O) was added to the wells, and the cells were incubated for two hours at 37° C. This procedure resealed ˜100% of the permeabilized cells. Ca^2+-containing RPMI was replaced by RPMI, and the cells were expanded for several weeks.

[1] = tested on: NFAT, c-Jun/AP 1, NFκB, and MAP kinase (Erk1 and Erk2); experiment: Nuclear uptake of transcription factors by resting T-cell nuclei in cell-free extract (immunoblot); assay type: biochemical, human; conditions: in stimulated extract; ATP or GTP substituted, or nuclear pores blocked
Protocol: A stimulated T-cell extract was prepared by lysing these T-cells, centrifuging them at 15,000×g, isolating the supernatant, and adding an ATP-generating system to the supernatant. In particular, cells were disrupted with a tip sonicator until over 90% of the cells and nuclei were lysed. The lysate was cleared at 15,000×g for 15 minutes at 4° C. The supernatant was used fresh or aliquoted, frozen in liquid nitrogen, and stored at −80° C. […] Extract from unstimulated T-cells (USE) were prepared from mock (H2O)-stimulated T-cells. A reprogramming reaction consisted of 20 μl or multiples thereof of stimulated extract or unstimulated extract containing 10^5 nuclei and an ATP generating system (1 mM ATP, 10 mM creatine phosphate, 25 μg/ml creatine kinase, and 100 μM GTP).
To generate donor nuclei, resting peripheral blood T-cells were washed and resuspended in 20 volumes of ice-cold hypotonic nuclear buffer (10 mM Hepes, pH 7.5, 2 mM MgCl2, 25 mM KCl, 1 mM DTT, and protease inhibitors). Nuclei were isolated by careful Dounce-homogenization, sedimented at 400×g and washed in nuclear buffer (hypotonic nuclear buffer/250 mM sucrose). HUVEC, HeLa, and NT2 nuclei were isolated similarly. Nuclear integrity prior to, and after, incubation in the extract was monitored by phase contrast microscopy and by nuclear membrane labeling with 10 μg/ml of the lipophilic dye, DiOC6 (FIG. 8A). […]
The ability of other transcription factors from the extract to migrate into the nuclei of T-cells, B-cells, fibroblasts, and HeLa cells was also determined. […] As expected for a whole cell extract, NFAT, AP-1, or NFκB, Oct-1 and Erk (1 and 2) were detected on Western blots of input stimulated extract prior to incubation of the nuclei (FIG. 8B). […] The ubiquitous transcription factor Oct-1 was detected in similar amounts in input nuclei and nuclei exposed to stimulated extract or unstimulated extract (FIG. 8B, Oct-1).

IL-2 gene [2] = experiment: RT-PCR of IL-2 transcription in 293T fibroblast nuclei; assay type: biochemical, human; conditions: 293T nuclei; mAb414 or 50 nM actinomycin D
Protocol: Another and more stringent indicator of nuclear reprogramming was induction of IL-2 transcription in 293T fibroblast nuclei exposed to stimulated T-cell extract (FIG. 12D). Total RNA was isolated using the Qiagen RNeasy kit, and 15 ng RNA was used as the template for RT-PCR using the Promega Access RT-PCR System. A 467-bp product was amplified using the IL-2-specific primers 5′-[…]-3′ (SEQ ID NO: 5) and 5′-[…]-3′ (SEQ ID NO: 6) by 30 cycles of denaturation at 94° C. for 30 seconds, annealing at 60° C. for one minute, and extension at 72° C. for one minute. […] As expected from the above results, the IL-2 transcript was absent from input nuclei, input stimulated T-cell extract, and nuclei exposed to stimulated T-cell extract containing either 100 pg/ml RNAse A, mAb414, or 50 nM of the RNA polymerase II (Pol II) inhibitor, actinomycin D (FIG. 12D). Similar results were obtained with neuronal precursor NT2 nuclei and resting T-cell nuclei (FIG. 12D).

IL-2 gene [3] = experiment: RT-PCR of IL-2 mRNA in HUVEC, NT2 and HeLa nuclei incubated in extract; assay type: biochemical, human; conditions: 50 nM actinomycin D; mAb414
Protocol: As a more stringent indicator of nuclear reprogramming, activation of the IL-2 gene was monitored in nuclei purified from primary human umbilical vein endothelial cells (HUVEC), NT2 neuronal precursors, and HeLa cells after a two hour incubation in the stimulated extract. […] IL-2 activation was dependent on RNA Pol II activity and nuclear import, based on its elimination by 50 nM actinomycin D and mAb414, respectively (FIG. 10C).

IL-2 gene [4] = experiment: RT-PCR of IL-2 mRNA in resting T-cell nuclei incubated in extract; assay type: biochemical, human; conditions: mAb414 antibody or 0.5 mg/ml wheat germ agglutinin
Protocol: As controls, nuclei were incubated in stimulated extract containing either 100 μg/ml RNAse A, 100 μg/ml DNAse I, mAb414 antibodies, or the lectin WGA. After 30 minutes at 30° C., nuclei were lysed in the extracts by sonication and 3 μl extract aliquots were removed for RT-PCR analysis using IL-2-specific primers. In particular, total RNA was isolated using the Qiagen RNeasy kit, and 15 ng RNA was used as the template for RT-PCR using the Promega Access RT-PCR System. A 467-bp IL-2 cDNA was amplified using the IL-2-specific primers 5′-[…]-3′ (SEQ ID NO: 3) and 5′-[…]-3′ (SEQ ID NO:4). PCR conditions were 30 cycles of denaturation at 94° C. for one minute, annealing at 60° C. for two minutes, and extension at 72° C. for three minutes. Input stimulated extract and a control stimulated extract containing 1.2 μg total RNA isolated from IL-2-producing T-cells were also analyzed (FIGS. 5A and 10A). […] The PCR product of the expected size (467 base pairs) was absent from input nuclei and input stimulated extract (as expected from FIG. 7), nuclei exposed to unstimulated extract (Nuclei-USE), and nuclei exposed to stimulated extract followed by treatment with 100 μg/ml RNAse A, but not 100 μg/ml DNAse I, prior to RT-PCR. Thus, detection of IL-2 mRNA was the result of IL-2 transcription and not of RNA contamination in input nuclei or in the extract. […]

streptolysin O: bacterial toxin used to reversibly permeabilize cells
293T cells permeabilized (293T fibroblasts): Over 80%

Nc1ncnc2c1ncn2[C@@H]1O[C@H](COP(=O)(O)OP(=O)(O)OP(O)(O)=S)[C@@H](O)[C@H]1O [ATPγS]
nuclear uptake (import) of transcription factors in resting T-cell nuclei [1]: inhibited

Cc1c2oc3c(C)ccc(C(=O)N[C@@H]4C(=O)N[C@H](C(C)C)C(=O)N5CCC[C@H]5C(=O)N(C)CC(=O)N(C)[C@@H](C(C)C)C(=O)O[C@@H]4C)c3nc-2c(C(=O)N[C@@H]2C(=O)N[C@H](C(C)C)C(=O)N3CCC[C@H]3C(=O)N(C)CC(=O)N(C)[C@@H](C(C)C)C(=O)O[C@@H]2C)c(N)c1=O [actinomycin D] (I: T[dV]P[Sar][NMeV] / II: T[dV]P[Sar][NMeV]; ester I:1-I:C, II:1-II:C; linker I:N-II:N via Actinocin(9to1))
IL-2 transcript in stimulated T-cell extract with inhibitor (IL-2 gene [2]): absent | IL-2 activation in stimulated extract with inhibitor (IL-2 gene [3]): elimination

Nc1nc2c(ncn2[C@@H]2O[C@H](COP(=O)(O)OP(=O)(O)OP(O)(O)=S)[C@@H](O)[C@H]2O)c(=O)[nH]1 [GTPγS]
nuclear uptake (import) of transcription factors in resting T-cell nuclei [1]: inhibited

wheat germ agglutinin
IL-2 transcription in stimulated extract with nuclear pore function blocked (IL-2 gene [4]): abolished

Nc1ncnc2c1ncn2[C@@H]1O[C@H](COP(=O)(O)OP(=O)(O)NP(=O)(O)O)[C@@H](O)[C@H]1O [AMP-PNP]
nuclear uptake (import) of transcription factors in resting T-cell nuclei [1]: inhibited
